Measured values taken from patent US10206937B2, “Boronic acid derivatives and therapeutic uses thereof” (Qpex Biopharma, Inc., priority 2014, dated 2019).
Where two headings read alike, the source gives them in different places.

Key:
NDM-1 [1] = biological target: T1, NDM-1 (Klebsiella pneumoniae, UniProt C7C422); experiment: biochemical
VIM-1 = biological target: T2, VIM-1 (Pseudomonas aeruginosa, UniProt A0A0F7KYQ8); experiment: biochemical; conditions: cleavage of nitrocefin (200 uM) by VIM-1 supernatant
T2 construct: made in house; host or cells: ECM6711 strain carrying pUCP24-VIM-1 plasmid; culture supernatant used unpurified

OXA-48 = OXA-48 (Klebsiella pneumoniae, UniProt Q6XEC0); experiment: Inhibition of purified class D carbapenemase OXA-48 (Ki, carbapenem substrates); format: biochemical
NDM-1 [2] = biological target: T1, NDM-1; experiment: Inhibition of purified class B carbapenemase NDM-1 (Ki, imipenem substrate); format: biochemical; conditions: NDM-1, substrate imipenem; read-out: Ki NDM-1, Imipenem
[3] = biological target: T3, purified class A, C and D enzymes (UniProt P0AD64, L31Q/G234S/E235K, species not given); format: biochemical; conditions: read-out: Ki (SHV-12, NCF); purified SHV-12; nitrocefin reporter substrate
T3 construct: Ki (SHV-12, NCF); other: purified SHV-12; nitrocefin reporter substrate
T3 sequence (P0AD64 1-286 L31Q/G234S/E235K): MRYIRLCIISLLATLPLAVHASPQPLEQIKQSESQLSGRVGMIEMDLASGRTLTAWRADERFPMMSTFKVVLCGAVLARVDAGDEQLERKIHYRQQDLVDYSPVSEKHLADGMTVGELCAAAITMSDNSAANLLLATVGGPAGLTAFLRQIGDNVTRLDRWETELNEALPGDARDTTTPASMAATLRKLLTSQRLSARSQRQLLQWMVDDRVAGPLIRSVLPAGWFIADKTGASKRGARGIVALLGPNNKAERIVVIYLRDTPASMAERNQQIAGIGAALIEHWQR

[4] = biological target: T4, purified class A, C and D enzymes (UniProt Q48434); format: biochemical; conditions: read-out: Ki (CMY-2, NCF); purified CMY-2; nitrocefin reporter substrate
T4 construct: rows headed: Ki (CMY-2, NCF); other: purified CMY-2; nitrocefin reporter substrate

[5] = biological target: T5, purified class A, C and D enzymes (UniProt Q6XEC0); format: biochemical; conditions: read-out: Ki (OXA-48, NCF); purified OXA-48; nitrocefin reporter substrate
T5 construct: rows headed: Ki (OXA-48, NCF); other: purified OXA-48; nitrocefin reporter substrate

[6] = biological target: T6, purified class A, C and D enzymes (UniProt Q9F663); format: biochemical; conditions: read-out: Ki (KPC-2, NCF); purified KPC-2; nitrocefin reporter substrate
T6 construct: rows headed: Ki (KPC-2, NCF); other: purified KPC-2; nitrocefin reporter substrate

[7] = biological target: purified class A, C and D enzymes (Escherichia coli, UniProt Q9L5C7); format: biochemical
[8] = Serum stability of prodrugs: hydrolysis by human serum; format: in vitro ADME; conditions: prodrug; for Measured Initial Conc. in Serum: 37 degrees, sampled immediately
Experimental: (§1) Prodrug strategy is one of the ways to achieve or increase oral bioavailability for therapeutic drugs. Compound 62 was used as a template for various ester prodrugs. After a prodrug molecule is absorbed into systemic circulation, it should be hydrolyzed in the blood in order to release the active form. Hydrolysis of several prodrugs by rat and human serum were evaluated.
(§2) For all stability experiments the test compounds were treated with rat or human serum in Eppendorf tubes. Typically, 980 μl of serum was prewarmed at 37 degrees for 2 minutes and then 20 μl of a compound (at 1 mg/ml, 50×) was added to it to get a final concentration of 20 μg/ml and immediately mixed. Duplicate samples were tested. […] After vortexing for 30 seconds, the tube was centrifuged in a microcentrifuge for 10 minutes at 15K rpm. Next, 100 μl of the supernatant was combined with 600 μl of water and injected on LC-MS using 0.1% formic acid in water for mobile phase A and 0.1% formic acid in methanol for mobile phase B on an ACE 5 C18 2.1×100 mm column with a 10 μL it injection. The flow rate and gradient were adjusted as needed to give the desired resolution and run time. The pH of the mobile phase was adjusted if needed to improve the chromatography.
(§3) The time course of both the disappearance of a prodrug and the appearance of the active form of that prodrug is presented in Table 13 and Table 14. The active metabolites for all of the listed prodrugs are corresponding parent drugs

[9] = Serum stability of prodrugs: hydrolysis by rat serum; format: in vitro ADME; conditions: for Measured Initial Conc. in Serum / Conc. at t = 1 hr / Conc. at t = 3 hr: rat serum, prodrug; for Measured Initial Conc. in Serum: 37 degrees, sampled immediately
Experimental: as §1, §2, §3

[10] = cleavage of imipenem (100 uM) by NDM-1, read-out: Ki, Imipenem
[11] = purified OXA-48, substrate biapenem, read-out: Ki OXA-48, Biapenem
[12] = cleavage of tebipenem (100 uM) by NDM-1, read-out: Ki, Tebipenem
[13] = cleavage of biapenem (100 uM) by NDM-1, read-out: Ki, Biapenem

T1 sequence (C7C422 29-270, looked up, species assumed): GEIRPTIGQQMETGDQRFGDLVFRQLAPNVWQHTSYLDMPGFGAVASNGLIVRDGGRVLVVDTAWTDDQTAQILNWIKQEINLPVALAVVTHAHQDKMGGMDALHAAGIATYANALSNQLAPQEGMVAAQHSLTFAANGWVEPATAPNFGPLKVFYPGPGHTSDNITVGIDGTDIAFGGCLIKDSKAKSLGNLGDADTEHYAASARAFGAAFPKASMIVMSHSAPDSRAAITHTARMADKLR
Chain of OXA-48 (Q6XEC0 23-265, looked up): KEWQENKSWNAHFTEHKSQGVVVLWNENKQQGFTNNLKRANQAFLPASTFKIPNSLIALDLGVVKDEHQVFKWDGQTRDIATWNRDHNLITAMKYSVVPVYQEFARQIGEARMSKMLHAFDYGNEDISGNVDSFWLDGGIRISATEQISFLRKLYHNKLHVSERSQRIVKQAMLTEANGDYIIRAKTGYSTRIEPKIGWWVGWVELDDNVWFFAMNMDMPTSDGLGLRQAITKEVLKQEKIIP
Chain of purified class A, C and D enzymes (Escherichia coli, UniProt Q9L5C7) (Q9L5C7 entry or part of it): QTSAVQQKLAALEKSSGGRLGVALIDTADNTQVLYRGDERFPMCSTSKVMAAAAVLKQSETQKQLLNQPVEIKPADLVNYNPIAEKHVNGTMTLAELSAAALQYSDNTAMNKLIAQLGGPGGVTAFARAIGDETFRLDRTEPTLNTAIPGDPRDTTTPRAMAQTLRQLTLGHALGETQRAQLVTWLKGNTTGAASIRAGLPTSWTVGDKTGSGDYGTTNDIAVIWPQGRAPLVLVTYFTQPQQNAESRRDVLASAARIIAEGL

Row | Structure (SMILES) | Ki (NDM-1 [1]; [10]) [nM] | IC50 (VIM-1) [nM] | Ki (OXA-48; [11]) [nM] | Ki (NDM-1 [2]) [nM] | Ki [3] [nM] | Ki [4] [nM] | Ki [5] [nM] | Ki [6] [nM] | other results
1 | CC(=O)Nc1nnc(S[C@H]2Cc3cccc(C(=O)O)c3OB2O)s1 [Compound 7, (R)-3-(5-acetamido-1,3,4-thiadiazol-2-ylthio)-2-hydroxy-3,4-dihydro-2H-benzo[e][1,2]oxaborinine-8-carboxylic acid] | 10 to 100 | < 1000 | < 10 | 10 to 100 | < 100 | < 100 | < 100 |  | 
2 | O=C(O)c1cccc2c1OB(O)[C@@H](Sc1nnc[nH]1)C2 [Compound 2, (R)-3-(4H-1,2,4-triazol-3-ylthio)-2-hydroxy-3,4-dihydro-2H-benzo[e][1,2]oxaborinine-8-carboxylic acid] | < 10 | < 1000 | 10 to 100 | < 10 | < 100 | 100 to 1000 | < 100 | 100 to 1000 | Ki (NDM-1 [1]; [12]): 10 to 100 nM
3 | O=C(O)c1cccc2c1OB(O)[C@@H](Sc1nccs1)C2 [Compound 11, (R)-2-hydroxy-3-(thiazol-2-ylthio)-3,4-dihydro-2H-benzo[e][1,2]oxaborinine-8-carboxylic acid] | > 100 | ≥ 1000 |  | > 100 | < 100 | < 100 | < 100 |  | 
4 | NC(=O)CC1Cc2cccc(C(=O)O)c2OB1O (centres unmarked) [Compound 22, 3-(2-amino-2-oxoethyl)-2-hydroxy-3,4-dihydro-2H-benzo[e][1,2]oxaborinine-8-carboxylic acid] |  |  |  |  | < 100 | < 100 | < 100 | < 100 | 
5 | NC(=O)CS[C@H]1Cc2cccc(C(=O)O)c2OB1O [Compound 3, (R)-3-(2-amino-2-oxoethylthio)-2-hydroxy-3,4-dihydro-2H-benzo[e][1,2]oxaborinine-8-carboxylic acid] | > 100 |  | < 10 | > 100 | 100 to 1000 | < 100 | < 100 | < 100 | Ki (NDM-1 [1]; [13]): > 100 nM; Ki (NDM-1 [1]; [12]): > 100 nM
6 | O=C(O)[C@H]1/C(=C/CO)O[C@@H]2CC(=O)N21 [Clavulanic acid] |  |  |  |  |  | > 1000 | > 1000 | > 1000 | Ki (CTX-M-14, NCF) [7]: X (key: X: Less than 0.1 μM; Y: 0.1 μM to 1 μM; Z: Greater than 1 μM)
7 | C[C@]1(Cn2ccnn2)[C@H](C(=O)O)N2C(=O)C[C@H]2S1(=O)=O [Tazobactam] |  |  |  |  |  | 100 to 1000 | 100 to 1000 | > 1000 | 
8 | Cn1cnnc1S[C@H]1Cc2cccc(C(=O)O)c2OB1O [Compound 15, (R)-2-hydroxy-3-(4-methyl-4H-1,2,4-triazol-3-ylthio)-3,4-dihydro-2H-benzo[e][1,2]oxaborinine-8-carboxylic acid] | 10 to 100 | < 1000 | < 10 |  | < 100 | < 100 | < 100 | 100 to 1000 | Ki (NDM-1 [1]; [13]): 10 to 100 nM; Ki (NDM-1 [1]; cleavage of meropenem (100 uM) by NDM-1, read-out: Ki, Meropenem): 10 to 100 nM
9 | Nc1nnc(S[C@H]2Cc3cccc(C(=O)O)c3OB2O)s1 [Compound 4, (R)-3-(5-amino-1,3,4-thiadiazol-2-ylthio)-2-hydroxy-3,4-dihydro-2H-benzo[e][1,2]oxaborinine-8-carboxylic acid] | < 10 | < 1000 | < 10 | < 10 | < 100 | < 100 | < 100 |  | Ki (NDM-1 [1]; [13]): < 10 nM; Ki (NDM-1 [1]; [12]): < 10 nM; Ki (OXA-48; cleavage of biapenem by OXA-48, read-out: Ki, Biapenem): < 10 nM; Ki (OXA-48; cleavage of doripenem by OXA-48, read-out: Ki, Doripenem): 10 to 100 nM; Ki (OXA-48; cleavage of imipenem by OXA-48, read-out: Ki, Imipenem): < 10 nM; Ki (OXA-48; cleavage of meropenem by OXA-48, read-out: Ki, Meropenem): > 100 nM; Ki (OXA-48; cleavage of tebipenem by OXA-48, read-out: Ki, Tebipenem): 10 to 100 nM
10 | COc1ccc2c(c1C(=O)OCOC(=O)OC(C)C)OB(O)[C@@H](Sc1nncs1)C2 [Compound 122, isopropoxycarbonyloxymethyl (3R)-2-hydroxy-7-methoxy-3-(1,3,4-thiadiazol-2-ylsulfanyl)-3,4-dihydro-1,2-benzoxaborinine-8-carboxylate] |  |  |  |  |  |  |  |  | Measured Initial Conc. in Serum [8]: 44.3 µM; Conc. at t = 1 hr [8]: 34.1 µM; Conc. at t = 3 hr [8]: 47.1 µM; Measured Initial Conc. in Serum [9]: 37.7 µM; Conc. at t = 1 hr [9]: 26.6 µM; Conc. at t = 3 hr [9]: 39.0 µM
11 | NC(=O)CCS[C@H]1Cc2cccc(C(=O)O)c2OB1O [Compound 9, (R)-3-(3-amino-3-oxopropylthio)-2-hydroxy-3,4-dihydro-2H-benzo[e][1,2]oxaborinine-8-carboxylic acid] | > 100 | < 1000 | 10 to 100 | > 100 | 100 to 1000 | < 100 | < 100 | < 100 | 
12 | COc1ccc2c(c1C(=O)OCOC(C)=O)OB(O)[C@@H](Sc1nncs1)C2 [Compound 123, acetoxymethyl (3R)-2-hydroxy-7-methoxy-3-(1,3,4-thiadiazol-2-ylsulfanyl)-3,4-dihydro-1,2-benzoxaborinine-8-carboxylate] |  |  |  |  |  |  |  |  | Measured Initial Conc. in Serum [8]: 51.7 µM; Conc. at t = 1 hr [8]: 43.4 µM; Conc. at t = 3 hr [8]: 30.7 µM; Measured Initial Conc. in Serum [9]: 51.5 µM; Conc. at t = 1 hr [9]: 26.1 µM; Conc. at t = 3 hr [9]: 8.6 µM; conversion of prodrug to active metabolite ([9]; serum species not given, 4 hour experiment): completely converted to active metabolite
